Test [1] has as its system Streptococcus sp. 'group B'. Kind of test: Antimicrobial activity against Beta-hemolytic Streptococcus sp. 'group B' assessed as growth inhibition at 0.06 ug/ml by broth microdilution method. It counts as functional.
A short description of test [2]: Antimicrobial activity against Beta-hemolytic Streptococcus sp. 'group G' assessed as growth inhibition at 0.12 ug/ml by broth microdilution method. It counts as functional.
For another test, the system named is Streptococcus sp. In words: Antimicrobial activity against Beta-hemolytic Streptococcus sp. […]. Format: functional, Group F.
Test [3] concerns Enterococcus faecalis. In words: Antimicrobial activity against Enterococcus faecalis VanA assessed as growth inhibition at 0.25 ug/ml by broth microdilution method. It counts as functional.
Test [4] has as its system Enterococcus faecium. In words: Antimicrobial activity against Enterococcus faecium VanA assessed as growth inhibition at 0.06 ug/ml by broth microdilution method. Format: functional. In general terms: Dilution methods test growth across graded concentrations, often in twofold steps.
Another test relates to Streptococcus. In words: Antimicrobial activity against viridans group Streptococcus by broth microdilution method. It counts as functional.
The subject of test [5] is Staphylococcus. Kind of test: Antimicrobial activity against Oxacillin-susceptible coagulase-negative Staphylococcus by broth microdilution method. Format: functional.
In test [6] the test system is Enterococcus faecium. Kind of test: Antimicrobial activity against Enterococcus faecium VanB assessed as growth inhibition at 4 ug/ml by broth microdilution method. Format: functional.
Test [7] relates to Enterococcus faecalis. Kind of test: Antimicrobial activity against Enterococcus faecalis VanA assessed as growth inhibition at 0.5 ug/ml by broth microdilution method. It counts as functional.
Test [8] in a line: Antimicrobial activity against Beta-hemolytic Streptococcus sp. 'group C' assessed as growth inhibition at =<[…] ug/ml by broth microdilution method. It counts as functional.
Test [9] deals with Staphylococcus. In words: Antimicrobial activity against Oxacillin-resistant coagulase-negative Staphylococcus by broth microdilution method. Format: functional.
The test system of test [10] is Enterococcus faecium. Kind of test: Antimicrobial activity against Enterococcus faecium VanB assessed as growth inhibition at 0.06 ug/ml by broth microdilution method. It counts as functional.
The test system of test [11] is Enterococcus faecalis. Kind of test: Antimicrobial activity against Enterococcus faecalis VanB assessed as growth inhibition at =<[…] ug/ml by broth microdilution method. Format: functional.
A short description of test [12]: Antimicrobial activity against Beta-hemolytic Streptococcus sp. 'group G' assessed as growth inhibition at 0.06 ug/ml by broth microdilution method. It counts as functional.
The subject of test [13] is Staphylococcus. Kind of test: Antimicrobial activity against Oxacillin-susceptible coagulase-negative Staphylococcus assessed as percent susceptible isolate by broth microdilution method. It counts as functional.
Test [14] has as its system Streptococcus sp. 'group B'. In words: Antimicrobial activity against Beta-hemolytic Streptococcus sp. 'group B' assessed as growth inhibition at 0.25 ug/ml by broth microdilution method. It counts as functional.

Converted amounts (≈) assume the structure as drawn. A value given as a limit tells only on which side of the number the result lay.

What is called inhibition is the relative decrease from the control value, in per cent. As usually defined, the MIC50 is the lowest concentration that inhibits either 50% of growth or 50% of the strains tested, depending on the study. A higher MIC50 goes with lower susceptibility. As usually defined, the MIC90 is the lowest concentration that inhibits either 90% of growth or 90% of the strains tested, depending on the study. A lower MIC90 goes with higher susceptibility.

On to `CN[C@H](CC(C)C)C(=O)N[C@H]1C(=O)N[C@@H](CC(N)=O)C(=O)N[C@H]2C(=O)N[C@H]3C(=O)N[C@H](C(=O)N[C@H](C(=O)O)c4cc(O)cc(O)c4-c4cc3ccc4O)[C@H](O)c3ccc(c(Cl)c3)Oc3cc2cc(c3O[C@@H]2O[C@H](CO)[C@@H](O)[C@H](O)[C@H]2O[C@H]2C[C@](C)(N)[C@H](O)[C@H](C)O2)Oc2ccc(cc2Cl)[C@H]1O` [VANCOMYCIN], for which the inhibition at 0.06 µg/mL in test [1] is 98%; in the test with Enterococcus faecium [4] it was 0.3%; in the test on Enterococcus faecium [10], 56%; in test [12], 99.6%. Moreover, the inhibition at 0.12 µg/mL in [2] was found to be 100%. Besides, the entries for the “inhibition (INH)” value (in the test on Streptococcus sp.; in test [8]; in the test on Enterococcus faecalis [11]) were 97.1%, 99.4% and 9.5%, respectively. The inhibition at 0.25 µg/mL in the test on Enterococcus faecalis [3] worked out at 3.9%; in test [14], 100%. The MIC50 worked out at 0.5 mg/L (≈ 0.345 µM) against Streptococcus, 1 mg/L (≈ 0.69 µM) against Staphylococcus [5] and 1 mg/L (≈ 0.69 µM) against Staphylococcus [9]. Besides, the MIC90 in the test on Streptococcus was 1 mg/L (≈ 0.69 µM); in the test on Staphylococcus [5] it was 2 mg/L (≈ 1.38 µM); in the test on Staphylococcus [9], greater than 2 mg/L. Besides, the inhibition at 4 µg/mL with Enterococcus faecium [6] stood at 97.8%. Further, the inhibition at 0.5 µg/mL with Enterococcus faecalis [7] turned out to be 4.3%. The Activity in the test with Staphylococcus [13] is listed as 100%.

The values above are taken from ChEMBL document CHEMBL1629667, “Activities of dalbavancin against a worldwide collection of 81,673 gram-positive bacterial isolates” (2009).
